Experiment [1] deals with T1, ADAMTS4 (Homo sapiens, UniProt O75173).
T1 construct: purchased R&D 4307-AD
T1 sequence (O75173 213-685 limits assumed): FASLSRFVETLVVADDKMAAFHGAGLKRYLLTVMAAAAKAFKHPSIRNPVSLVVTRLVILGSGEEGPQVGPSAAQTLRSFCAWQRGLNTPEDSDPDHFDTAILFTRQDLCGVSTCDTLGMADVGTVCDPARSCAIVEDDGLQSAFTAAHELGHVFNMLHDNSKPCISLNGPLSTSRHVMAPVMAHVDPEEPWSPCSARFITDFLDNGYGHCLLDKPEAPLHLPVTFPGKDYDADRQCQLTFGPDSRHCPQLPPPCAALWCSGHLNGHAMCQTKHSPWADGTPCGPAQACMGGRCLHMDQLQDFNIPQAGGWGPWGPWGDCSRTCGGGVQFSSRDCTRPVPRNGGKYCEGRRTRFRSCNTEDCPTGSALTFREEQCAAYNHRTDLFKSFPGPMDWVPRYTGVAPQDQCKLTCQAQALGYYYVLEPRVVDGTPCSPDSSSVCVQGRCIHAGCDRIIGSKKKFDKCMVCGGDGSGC
The experiment in a line: Selectivity assay for ADAMTS-7 modulators (FRET), ADAMTS4. It is filed as biochemical. Particulars: 50 nM enzyme (R&D 4307-AD), 1 μM Dabcyl/Edans FRET substrate, 120 min at 32° C. In a few lines: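 Enzyme in 50 mM Tris pH 7.5, 150 mM NaCl, 10 mM CaCl2, 0.05% Brij, preincubated with compound in DMSO; reaction started with FRET substrate. Fluorescence increase read after 120 min at 32° C; IC50 from percent inhibition versus compound concentration.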

Experiment [2] deals with T2, Purified recombinant ADAMTS-7 (rat prodomain/human catalytic domain, SEQ ID No. 01 or 02) (Homo sapiens, UniProt Q9UKP4).
T2 construct: rat ADAMTS-7 signal peptide + prodomain (rat 1-217, Q1EHB3) (N); 2xStrep tag (C); 6xHis tag (C); made in house; host or cells: Expi293 cells
T2 sequence (Q9UKP4 237-537): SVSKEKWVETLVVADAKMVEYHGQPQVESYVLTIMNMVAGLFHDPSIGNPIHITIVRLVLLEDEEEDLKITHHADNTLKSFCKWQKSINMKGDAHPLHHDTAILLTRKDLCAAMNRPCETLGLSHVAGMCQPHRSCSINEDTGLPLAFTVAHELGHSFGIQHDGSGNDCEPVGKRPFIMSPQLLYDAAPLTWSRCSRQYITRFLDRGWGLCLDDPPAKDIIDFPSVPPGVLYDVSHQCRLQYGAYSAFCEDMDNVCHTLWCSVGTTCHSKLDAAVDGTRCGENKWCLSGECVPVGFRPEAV
Briefly: Assay for ADAMTS-7 enzymatic activity (FRET substrate cleavage). It is filed as biochemical. Conditions: FRET substrate SEQ ID No. 11, 120 min at 32° C.; read-out: ADAMTS7-IC50. An outline of the steps:
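About 20 nM enzyme in 20 mM HEPES pH 8.0, 150 mM NaCl, 5 mM CaCl2, 0.004% Brij and 10 μM ZnCl2 was mixed with compound in DMSO and a QXL520-quenched FRET peptide from thrombospondin-1 (275-289). After 120 min at 32 °C, fluorescence was read at 485/520 nm. IC50 came from percent inhibition versus concentration.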

By IC50 is commonly meant the concentration at which inhibition is half-maximal. For the compound `O=C1NC(=O)C(CNC(=O)c2cnn(-c3ccccc3)n2)(C2CCCOC2)N1` (single isomer, unassigned; dia2) [Example 85, dia2-N-{[4-(-oxan-3-yl)-2,5-dioxoimidazolidin-4-yl]methyl}-2-phenyl-2H-1,2,3-triazole-4-carboxamide], the figures for the half-maximal inhibitory concentration (IC50) in experiment [1] and in experiment [2] were 6500 nM and 250 nM, respectively.

Turning to `Cc1scnc1C1(CNC(=O)c2cnn(-c3ccc(F)cc3)n2)NC(=O)NC1=O` (racemic) [Example 100, rac-2-(4-fluorophenyl)-N-{[4-(5-methyl-1,3-thiazol-4-yl)-2,5-dioxoimidazolidin-4-yl]methyl}-2H-1,2,3-triazole-4-carboxamide], the results for the IC50 in experiment [1] and in experiment [2] were 680 nM and 8 nM, respectively.

With `O=C1NC(=O)C(CNC(=O)c2cnn(-c3ccc(F)cc3)n2)(c2ncccc2C(F)(F)F)N1` (racemic) [Example 156, rac-N-({2,5-dioxo-4-[3-(trifluoromethyl)pyridin-2-yl]imidazolidin-4-yl}methyl)-2-(4-fluorophenyl)-2H-1,2,3-triazole-4-carboxamide], the results for the half-inhibitory concentration (IC50) in experiment [1] and in experiment [2] were 15000 nM and 59 nM, respectively.

As for `O=C1NC(=O)C(CNC(=O)c2cnn(-c3ccc(F)c(Cl)c3)n2)(c2nccs2)N1` (racemic) [Example 111, rac-2-(3-chloro-4-fluorophenyl)-N-{[2,5-dioxo-4-(1,3-thiazol-2-yl)imidazolidin-4-yl]methyl}-2H-1,2,3-triazole-4-carboxamide], the IC50 in experiment [1] was found to be 1200 nM; in experiment [2], 35 nM.

Turning to `O=C1NC(=O)C(CNC(=O)c2cnn(-c3ccc(F)cc3)n2)(c2nccs2)N1` (stereo not drawn) [Example 114, ent-N-{[2,5-dioxo-4-(1,3-thiazol-2-yl)imidazolidin-4-yl]methyl}-2-(4-fluorophenyl)-2H-1,2,3-triazole-4-carboxamide], the IC50 in experiment [1] was 1400 nM; in experiment [2], 15 nM.

On to `CC(C)(C)C1(CNC(=O)c2cnn(-c3ccc(F)cc3)n2)NC(=O)NC1=O` (stereo not drawn) [Example 3, ent-N-{[4-tert-butyl-2,5-dioxoimidazolidin-4-yl]methyl}-2-(4-fluorophenyl)-2H-1,2,3-triazole-4-carboxamide], for which the IC50 was 2200 nM in experiment [1] and 79 nM in experiment [2].

As for `O=C1NC(=O)C(CNC(=O)c2cnn(-c3ccc(Cl)cc3)n2)(C2CCC2)N1` (single isomer, unassigned; ent-2) [Example 95, ent-2-(4-chlorophenyl)-N-[(4-cyclobutyl-2,5-dioxoimidazolidin-4-yl)methyl]-2H-1,2,3-triazole-4-carboxamide], the half-inhibitory concentration (IC50) in experiment [1] came to 980 nM; in experiment [2], 10 nM.

As to `O=C1NC(=O)C(CNC(=O)c2cnn(-c3ccc(F)cc3)n2)(C2CCC2)N1` (racemic) [Example 69, rac-N-[(4-cyclobutyl-2,5-dioxoimidazolidin-4-yl)methyl]-2-(4-fluorophenyl)-2H-1,2,3-triazole-4-carboxamide], the IC50 in experiment [1] is 35000 nM; in experiment [2], 98 nM.

Consider `CC(C)(C)C1(CNC(=O)c2cnn(-c3ccccc3)c2)NC(=O)NC1=O` (racemic) [Example 58, rac-N-[4-tert-butyl-2,5-dioxoimidazolidin-4-yl)methyl]-1-phenyl-1H-pyrazole-4-carboxamide], for which the values for the IC50 in experiment [1] and in experiment [2] were 5600 nM and 550 nM, respectively.

For the compound `CCC(C)C1(CNC(=O)c2cnn(-c3ccc(F)cc3)n2)NC(=O)NC1=O` (single isomer, unassigned) [Example 137, ent-N-[(4-sec-butyl-2,5-dioxoimidazolidin-4-yl)methyl]-2-(4-fluorophenyl)-2H-1,2,3-triazole-4-carboxamide], the results for the half-maximal inhibitory concentration (IC50) in experiment [1] and in experiment [2] were 1000 nM and 37 nM, respectively.

With `CCn1nccc1C1(CNC(=O)c2cnn(-c3ccc(F)cc3)n2)NC(=O)NC1=O` (racemic) [Example 130, rac-N-{[4-(1-ethyl-1H-pyrazol-5-yl)-2,5-dioxoimidazolidin-4-yl]methyl}-2-(4-fluorophenyl)-2H-1,2,3-triazole-4-carboxamide], the results for the 50% inhibitory concentration (IC50) in experiment [1] and in experiment [2] were 2800 nM and 14 nM, respectively.

Consider `O=C1NC(=O)[C@](CNC(=O)c2cnn(-c3ccc(F)cc3Cl)n2)(C2CC2)N1` [Example 151, 2-(2-chloro-4-fluorophenyl)-N-{[(4R)-4-cyclopropyl-2,5-dioxoimidazolidin-4-yl]methyl}-2H-1,2,3-triazole-4-carboxamide], for which the IC50 in experiment [1] worked out at 17000 nM; in experiment [2], 320 nM.

`O=C1NC(=O)[C@](CNC(=O)c2nnc(-c3ccc(F)cc3)o2)(C2CC2)N1` [Example 42, N-{[(4R)-4-cyclopropyl-2,5-dioxoimidazolidin-4-yl]methyl}-5-(4-fluorophenyl)-1,3,4-oxadiazole-2-carboxamide]: the results for the IC50 in experiment [1] and in experiment [2] were 12000 nM and 350 nM, respectively.

For `CCC(C)C1(CNC(=O)c2cnn(-c3ccc(F)cc3)n2)NC(=O)NC1=O` (single isomer, unassigned) [Example 104, ent-N-[(4-sec-butyl-2,5-dioxoimidazolidin-4-yl)methyl]-2-(4-fluorophenyl)-2H-1,2,3-triazole-4-carboxamide], the results for the IC50 in experiment [1] and in experiment [2] were 2200 nM and 10 nM, respectively.

For the compound `CCC1(CNC(=O)c2cnn(-c3ccc(F)cc3)n2)NC(=O)NC1=O` (racemic) [Example 162, rac-N-[(4-ethyl-2,5-dioxoimidazolidin-4-yl)methyl]-2-(4-fluorophenyl)-2H-1,2,3-triazole-4-carboxamide], the IC50 in experiment [1] was found to be 13000 nM; in experiment [2], 200 nM.

As for `O=C1NC(=O)C(CNC(=O)c2cnn(-c3ccc(F)cc3)n2)(C2(Cl)CC2)N1` (racemic) [Example 159, rac-N-{[4-(1-chlorocyclopropyl)-2,5-dioxoimidazolidin-4-yl]methyl}-2-(4-fluorophenyl)-2H-1,2,3-triazole-4-carboxamide], the IC50 in experiment [1] came out at 3700 nM; in experiment [2], 74 nM.

As for `O=C1NC(=O)C(CNC(=O)c2cnn(-c3ccccc3)n2)(c2ccccn2)N1` (stereo not drawn) [Example 38, ent-N-{[2,5-dioxo-4-(pyridin-2-yl)imidazolidin-4-yl]methyl}-2-phenyl-2H-1,2,3-triazole-4-carboxamide], the IC50 is 2800 nM in experiment [1] and 10 nM in experiment [2].

Take `O=C1NC(=O)C(CNC(=O)c2cnn(-c3ccccc3)n2)(C2CCCC2)N1` (stereo not drawn) [Example 83, ent-N-[(4-cyclopentyl-2,5-dioxoimidazolidin-4-yl)methyl]-2-phenyl-2H-1,2,3-triazole-4-carboxamide]: the IC50 in experiment [1] turned out to be 11000 nM; in experiment [2], 120 nM.

Turning to `O=C1NC(=O)[C@](CNC(=O)c2cnn(-c3ccc(F)cc3)n2)(C2CC2)N1` [Example 34, N-{[(4R)-4-cyclopropyl-2,5-dioxoimidazolidin-4-yl]methyl}-2-(4-fluorophenyl)-2H-1,2,3-triazole-4-carboxamide], the IC50 worked out at 1420 nM in experiment [1] and 26 nM in experiment [2].

With `O=C1NC(=O)[C@](CNC(=O)c2cnn(-c3cccc(F)c3F)n2)(C2CC2)N1` [Example 35, N-{[(4R)-4-cyclopropyl-2,5-dioxoimidazolidin-4-yl]methyl}-2-(2,3-difluorophenyl)-2H-1,2,3-triazole-4-carboxamide], the half-maximal inhibitory concentration (IC50) in experiment [1] worked out at 3100 nM; in experiment [2], 74 nM.

Regarding `CC(C)C1(CNC(=O)c2cnn(-c3ccc(Cl)c(F)c3)n2)NC(=O)NC1=O` (racemic) [Example 124, rac-2-(4-chloro-3-fluorophenyl)-N-[(4-isopropyl-2,5-dioxoimidazolidin-4-yl)methyl]-2H-1,2,3-triazole-4-carboxamide], the 50% inhibitory concentration (IC50) in experiment [1] worked out at 2800 nM; in experiment [2], 13 nM.

In the case of `CC1(CNC(=O)c2cnn(-c3ccc(F)cc3)n2)NC(=O)NC1=O` (racemic) [Example 152, rac-2-(4-fluorophenyl)-N-[(4-methyl-2,5-dioxoimidazolidin-4-yl)methyl]-2H-1,2,3-triazole-4-carboxamide], the half-inhibitory concentration (IC50) in experiment [1] worked out at 5000 nM; in experiment [2], 560 nM.

For `O=C1NC(=O)C(CNC(=O)c2cnn(-c3ccc(F)cc3)n2)(C2CCCCC2)N1` (stereo not drawn) [Example 75, ent-N-[(4-cyclohexyl-2,5-dioxoimidazolidin-4-yl)methyl]-2-(4-fluorophenyl)-2H-1,2,3-triazole-4-carboxamide], the half-maximal inhibitory concentration (IC50) in experiment [1] was determined as 4100 nM; in experiment [2] it was 14 nM.
